Source: ChEMBL document CHEMBL3603802, “Design and synthesis of new non nucleoside inhibitors of DNMT3A” (Bioorg Med Chem, 2015)

Columns and labels:
[1] = biological target: T1, DNA (cytosine-5)-methyltransferase 3A (Homo sapiens, UniProt Q9Y6K1); experiment: Inhibition of human C-terminal DNMT3A at 32 uM after 1 hr by fluorescence assay
[2] = Antiproliferative activity against human KG1 cells after 2 to 4 days by ATPlite 1step luminescence assay; format: functional, cell-based; settings: KG-1
[3] = Antiproliferative activity against human KARPAS299 cells after 2 to 4 days by ATPlite 1step luminescence assay; format: functional, cell-based; settings: KARPAS-299
[4] = test system: HCT-116; experiment: Antiproliferative activity against human HCT116 cells after 2 to 4 days by ATPlite 1step luminescence assay; format: functional, cell-based
[5] = biological target: T1, DNA (cytosine-5)-methyltransferase 3A; experiment: Inhibition of human C-terminal DNMT3A at 20 uM after 1 hr by fluorescence assay
[6] = biological target: T1, DNA (cytosine-5)-methyltransferase 3A; experiment: Inhibition of human C-terminal DNMT3A after 1 hr by fluorescence assay
[7] = Chemical stability of the compound after 30 mins by LC-MS analysis in presence of glutathione; format: physicochemical; settings: 0.5 h
[8] = Chemical stability of the compound in DMSO by HPLC analysis; format: physicochemical
[9] = biological target: DNA (cytosine-5)-methyltransferase 1 (Homo sapiens) (UniProt P26358); experiment: Inhibition of human His-DNMT1 using [methyl-3H]SAM as substrate at 100 uM after 2 hrs
DNA (cytosine-5)-methyltransferase 1 (Homo sapiens), sequence (P26358 whole entry): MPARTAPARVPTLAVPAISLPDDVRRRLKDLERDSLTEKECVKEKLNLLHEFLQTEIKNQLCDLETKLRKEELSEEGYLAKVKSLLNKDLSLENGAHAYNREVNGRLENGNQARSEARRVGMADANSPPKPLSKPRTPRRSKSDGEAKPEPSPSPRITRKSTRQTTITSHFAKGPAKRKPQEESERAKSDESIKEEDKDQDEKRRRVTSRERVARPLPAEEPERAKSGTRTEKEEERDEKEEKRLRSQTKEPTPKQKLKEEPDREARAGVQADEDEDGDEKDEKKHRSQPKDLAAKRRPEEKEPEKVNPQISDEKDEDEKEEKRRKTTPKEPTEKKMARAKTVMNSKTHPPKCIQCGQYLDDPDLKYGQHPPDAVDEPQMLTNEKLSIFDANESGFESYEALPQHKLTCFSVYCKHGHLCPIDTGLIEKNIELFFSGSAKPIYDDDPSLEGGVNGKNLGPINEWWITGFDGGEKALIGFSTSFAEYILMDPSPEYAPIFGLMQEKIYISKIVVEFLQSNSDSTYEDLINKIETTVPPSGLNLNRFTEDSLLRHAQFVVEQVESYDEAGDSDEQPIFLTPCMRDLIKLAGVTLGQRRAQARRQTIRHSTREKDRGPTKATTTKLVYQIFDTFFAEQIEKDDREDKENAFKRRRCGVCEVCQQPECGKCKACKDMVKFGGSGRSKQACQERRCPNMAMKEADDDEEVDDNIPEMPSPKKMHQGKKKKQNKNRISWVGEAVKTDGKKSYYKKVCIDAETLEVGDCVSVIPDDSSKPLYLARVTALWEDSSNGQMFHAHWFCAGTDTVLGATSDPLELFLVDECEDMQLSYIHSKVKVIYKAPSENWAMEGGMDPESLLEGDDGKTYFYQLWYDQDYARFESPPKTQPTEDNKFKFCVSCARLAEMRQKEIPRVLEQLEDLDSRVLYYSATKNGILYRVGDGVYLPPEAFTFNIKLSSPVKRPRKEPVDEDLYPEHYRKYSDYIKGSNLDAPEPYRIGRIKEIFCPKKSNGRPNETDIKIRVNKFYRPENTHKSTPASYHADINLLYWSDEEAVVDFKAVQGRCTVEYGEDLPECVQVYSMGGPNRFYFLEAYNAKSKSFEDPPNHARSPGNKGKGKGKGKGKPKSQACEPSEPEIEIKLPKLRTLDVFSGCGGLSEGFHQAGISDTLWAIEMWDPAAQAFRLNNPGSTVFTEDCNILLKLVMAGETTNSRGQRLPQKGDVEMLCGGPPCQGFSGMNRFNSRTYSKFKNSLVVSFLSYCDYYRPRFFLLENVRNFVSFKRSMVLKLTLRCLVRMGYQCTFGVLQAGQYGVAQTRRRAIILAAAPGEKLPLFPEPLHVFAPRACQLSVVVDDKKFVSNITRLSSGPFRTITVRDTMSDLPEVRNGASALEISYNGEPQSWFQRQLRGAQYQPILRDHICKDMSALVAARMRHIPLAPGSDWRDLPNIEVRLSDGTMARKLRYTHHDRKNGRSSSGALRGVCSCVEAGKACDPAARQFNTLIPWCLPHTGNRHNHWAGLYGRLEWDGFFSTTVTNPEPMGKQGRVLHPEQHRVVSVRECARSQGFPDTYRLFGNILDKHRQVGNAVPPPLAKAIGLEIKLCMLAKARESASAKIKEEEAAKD

[10] = biological target: DNA (cytosine-5)-methyltransferase 1 (Homo sapiens) (UniProt P26358); experiment: Inhibition of human His-DNMT1 using [methyl-3H]SAM as substrate at 32 uM after 2 hrs

T1 sequence (Q9Y6K1 whole entry, looked up): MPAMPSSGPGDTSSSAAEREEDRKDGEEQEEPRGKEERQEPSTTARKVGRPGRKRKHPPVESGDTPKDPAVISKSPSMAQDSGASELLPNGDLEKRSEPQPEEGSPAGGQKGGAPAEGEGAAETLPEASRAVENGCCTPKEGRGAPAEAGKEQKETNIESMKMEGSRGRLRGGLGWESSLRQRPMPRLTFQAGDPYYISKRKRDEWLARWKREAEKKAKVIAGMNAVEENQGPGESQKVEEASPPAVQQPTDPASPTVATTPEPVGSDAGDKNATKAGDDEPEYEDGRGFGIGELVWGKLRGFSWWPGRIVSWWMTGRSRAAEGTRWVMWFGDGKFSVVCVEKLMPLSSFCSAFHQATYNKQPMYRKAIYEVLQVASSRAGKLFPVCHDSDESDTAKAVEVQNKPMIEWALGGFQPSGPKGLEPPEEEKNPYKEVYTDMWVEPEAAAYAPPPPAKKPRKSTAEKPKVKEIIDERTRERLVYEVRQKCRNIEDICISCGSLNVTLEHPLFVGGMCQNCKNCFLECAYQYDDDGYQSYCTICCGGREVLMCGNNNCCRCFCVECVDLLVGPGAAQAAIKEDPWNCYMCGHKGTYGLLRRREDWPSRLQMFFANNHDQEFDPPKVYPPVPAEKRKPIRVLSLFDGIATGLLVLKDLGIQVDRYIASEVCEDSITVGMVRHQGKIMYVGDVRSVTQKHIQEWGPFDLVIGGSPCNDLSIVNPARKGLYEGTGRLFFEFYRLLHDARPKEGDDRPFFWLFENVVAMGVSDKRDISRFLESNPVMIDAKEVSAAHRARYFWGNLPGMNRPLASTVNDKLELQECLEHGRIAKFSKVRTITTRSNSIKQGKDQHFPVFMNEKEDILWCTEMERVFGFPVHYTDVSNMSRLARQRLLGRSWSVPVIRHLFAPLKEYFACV

Row | SMILES | inhibition [1] | inhibition [5] | other results
1 | CCSCC(C(=O)c1ccc(Cl)c(Cl)c1)n1cnc2ccccc21 (stereo unspecified) | 38% | – | EC50 [2]: 3.7 µM; EC50 [3]: > 10 µM; EC50 [4]: 3.1 µM
2 | O=C(c1ccc(Cl)cc1)C(CSCc1ncccn1)n1cnc2ccccc21 (stereo unspecified) | 43% | – | –
3 | O=C(c1ccc(Cl)cc1)C(CSc1ncc[nH]1)n1cnc2ccccc21 (stereo unspecified) | 38% | – | –
4 | Cc1cc(Nc2ccc(NC(=O)c3ccc(Nc4ccnc5ccccc45)cc3)cc2)nc(N)n1 | – | – | EC50 [2]: 4.4 µM; EC50 [3]: 1.8 µM; EC50 [4]: > 10 µM
5 | CCSCC(C(=O)c1ccc(Cl)cc1)n1ccnc1 (stereo unspecified) | – | 43% | –
6 | O=C(c1ccc(Cl)cc1)C(CSC1CCCCC1)n1cnc2ccccc21 (stereo unspecified) | – | 44% | –
7 | CCSCC(C(=O)c1ccc(OC)cc1)n1cnc2ccccc21 (stereo unspecified) | 0% | – | EC50 [2]: > 10 µM; EC50 [3]: > 10 µM; EC50 [4]: > 10 µM
8 | CCSCC(C(=O)c1ccc(Cl)cc1)n1cccn1 (stereo unspecified) | – | 17% | –
9 | CCSCC(C(=O)c1ccc(Cl)cc1)n1cnc2ncnc(N)c21 (stereo unspecified) | 54% | – | –
10 | CC(C)SCC(C(=O)c1ccc(Cl)cc1)n1cnc2ccccc21 (stereo unspecified) | – | 43% | –
11 | CCSC(C(=O)c1ccc(Cl)cc1)n1cnc2ccccc21 (stereo unspecified) | – | 15% | –
12 | CCSCC(Cn1cccn1)C(=O)c1ccc(Cl)cc1 (stereo unspecified) | – | 18% | –
13 | C=C(C(=O)c1ccc(Cl)cc1)n1cnc2ccccc21 | 81% | – | EC50 [6]: 4 µM; Stability [7]: Unstable
14 | O=C(c1ccc(Cl)cc1)C(CSCC1CCCC1)n1cnc2ccccc21 (stereo unspecified) | 36% | – | –
15 | O=C(c1ccc(Cl)cc1)C(CSCc1ccco1)n1cnc2ccccc21 (stereo unspecified) | 55% | – | –
16 | CN(C)/C=C(/C(=O)c1ccc(Cl)cc1)n1cnc2ccccc21 | 0% | – | Stability [8]: Stable
17 | CCSCC(C(OC)c1ccc(Cl)cc1)n1cnc2ccccc21 (stereo unspecified) | – | 5% | –
18 | CCSCC(C(=O)c1ccccc1)n1cnc2ccccc21 (stereo unspecified) | 34% | – | –

Row | SMILES | inhibition [1] | inhibition [5] | other results
19 | CCSCC(C(O)c1ccc(Cl)cc1)n1cnc2ccccc21 (stereo unspecified) | – | 4% | –
20 | CC(C)(C)SC(C(=O)c1ccc(Cl)cc1)n1cnc2ccccc21 (stereo unspecified) | – | 10% | –
21 | CCSCC(C(=O)c1ccc(Cl)cc1)n1cnc2c(N)ncnc21 (stereo unspecified) | 0% | – | –
22 | CCOCC(C(=O)c1ccc(Cl)cc1)n1cnc2ncnc(N)c21 (stereo unspecified) | 70% | – | EC50 [6]: 2.1 µM; inhibition [9]: 29%; Stability [8]: Unstable
23 | CC(C)SC(C(=O)c1ccc(Cl)cc1)n1cnc2ccccc21 (stereo unspecified) | – | 5% | –
24 | CC(C)(C)SCC(C(=O)c1ccc(Cl)cc1)n1cnc2ccccc21 (stereo unspecified) | – | 40% | –
25 | O=C(c1ccc(Cl)cc1)C(CSCc1ccccc1)n1cnc2ccccc21 (stereo unspecified) | 25% | 69% | –
26 | CCOCC(C(=O)c1ccc(Cl)cc1)n1cnc2ccccc21 (stereo unspecified) | 63% | – | –
27 | O=C(c1ccc(Cl)cc1)C(CSCc1cccc([N+](=O)[O-])c1)n1cnc2ccccc21 (stereo unspecified) | 40% | – | –
28 | O=C(c1ccc(Cl)cc1)C(SC1CCCCC1)n1cnc2ccccc21 (stereo unspecified) | – | 21% | –
29 | CCOC(c1ccc(Cl)cc1)C(CSCC)n1cnc2ccccc21 (stereo unspecified) | – | 9% | –
30 | COc1ccc(CSCC(C(=O)c2ccc(Cl)cc2)n2cnc3ccccc32)cc1 (stereo unspecified) | 34% | – | –
31 | CCSCC(C(=O)c1ccc(Cl)cc1)n1cnc2ccccc21 (stereo unspecified) | 45% | 70% | EC50 [6]: 3 µM; inhibition [10]: 70%; inhibition [9]: 22%; Stability [8]: Unstable
32 | O=C(Cn1cnc2ccccc21)c1ccc(Cl)cc1 | 12% | – | –
33 | CCSCC(Cn1ccnc1)C(=O)c1ccc(Cl)cc1 (stereo unspecified) | – | 9% | –
34 | CCSCC(Cn1cnc2ccccc21)C(=O)c1ccc(Cl)cc1 (stereo unspecified) | – | 23% | –
35 | O=C(/C(=C/C=C/c1ccccc1)n1cnc2ccccc21)c1ccc(Cl)cc1 | 0% | – | Stability [8]: Stable
